In PubChem BioAssay (NCI):
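1) Cells in 96-well plates. 2) Compound, 48 h, 5 concentrations. 3) Linear interpolation between surrounding doses. 4) Unreached endpoint = highest concentration. GI50: concentration for 50% inhibition of growth. Definition used: TGI = concentration required for complete inhibition of growth.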

How the values were obtained:
Test in all cases: NCI-60 cell line screen, 48 h
OVCAR-8 ovarian = tested on: OVCAR-8 ovarian
U251 CNS = tested on: U251 CNS
NCI/ADR-RES ovarian = tested on: NCI/ADR-RES ovarian
OVCAR-5 ovarian = tested on: OVCAR-5 ovarian
MDA-MB-435 = tested on: MDA-MB-435

C/C(=C\COc1ccc2ccc(=O)oc2c1)CCC(=O)C(C)(C)O
TGI (OVCAR-8 ovarian): 76.3 µM
TGI (U251 CNS): 47.4 µM
TGI (NCI/ADR-RES ovarian): > 100 µM
TGI (OVCAR-5 ovarian): > 100 µM
TGI (MDA-MB-435): 59.2 µM

Cc1cncc2cccc(S(=O)(=O)N3CCCNC[C@@H]3C)c12
GI50 (OVCAR-8 ovarian): 38.9 µM
TGI (OVCAR-8 ovarian): > 100 µM
GI50 (U251 CNS): 57.2 µM
TGI (U251 CNS): > 100 µM
GI50 (NCI/ADR-RES ovarian): 25.4 µM
TGI (NCI/ADR-RES ovarian): > 100 µM
GI50 (OVCAR-5 ovarian): 17.1 µM
TGI (OVCAR-5 ovarian): > 100 µM
GI50 (MDA-MB-435): > 100 µM
TGI (MDA-MB-435): > 100 µM

O=C(Nc1ccc(I)cc1F)c1cc(F)ccc1O
GI50 (OVCAR-8 ovarian): 1.07 µM
TGI (OVCAR-8 ovarian): 48.7 µM
GI50 (U251 CNS): 0.578 µM
TGI (U251 CNS): > 100 µM
GI50 (NCI/ADR-RES ovarian): 0.401 µM
TGI (NCI/ADR-RES ovarian): > 27.7 µM
GI50 (OVCAR-5 ovarian): 4.04 µM
TGI (OVCAR-5 ovarian): > 100 µM
GI50 (MDA-MB-435): 0.512 µM
TGI (MDA-MB-435): 4.45 µM

NC(=S)c1cn(C2OC(CO)C(O)C2O)c2ncnc(N)c12 (stereo unspecified)
GI50 (OVCAR-8 ovarian): 0.209 µM
GI50 (U251 CNS): 0.292 µM
TGI (U251 CNS): 8.71 µM
GI50 (NCI/ADR-RES ovarian): 0.192 µM
TGI (NCI/ADR-RES ovarian): 8.24 µM
GI50 (OVCAR-5 ovarian): 0.353 µM
GI50 (MDA-MB-435): 0.0633 µM
TGI (MDA-MB-435): 0.262 µM

O=C(CN1CCN(c2cc3c(cc2F)c(=O)c(C(=O)O)cn3C2CC2)CC1)Nc1ccc(C(=O)/C=C/c2ccccc2)cc1
GI50 (OVCAR-8 ovarian): 3.07 µM
TGI (OVCAR-8 ovarian): > 100 µM
GI50 (U251 CNS): 2.92 µM
TGI (U251 CNS): > 100 µM
GI50 (NCI/ADR-RES ovarian): 9.75 µM
TGI (NCI/ADR-RES ovarian): > 100 µM
GI50 (OVCAR-5 ovarian): 5.35 µM
TGI (OVCAR-5 ovarian): > 100 µM
GI50 (MDA-MB-435): 2.94 µM
TGI (MDA-MB-435): > 100 µM

COC(=O)[C@@H](C)C[C@H](Cc1ccccc1)NC(=O)c1csc([C@@H](C[C@H](C(C)C)N(C)C(=O)[C@@H](NC(=O)CN(C)C)C2CC2)OC(C)=O)n1
GI50 (OVCAR-8 ovarian): 0.0495 µM
TGI (OVCAR-8 ovarian): > 16.5 µM
GI50 (U251 CNS): 0.055 µM
TGI (U251 CNS): > 16.5 µM
GI50 (NCI/ADR-RES ovarian): 13.4 µM
TGI (NCI/ADR-RES ovarian): > 16.5 µM
GI50 (OVCAR-5 ovarian): 0.838 µM
TGI (OVCAR-5 ovarian): > 16.5 µM
GI50 (MDA-MB-435): 0.00192 µM
TGI (MDA-MB-435): < 0.0153 µM

Cn1cc(C2=C(c3cn(C)c4cc(Cl)ccc34)C(=O)NC2=O)c2ccccc21
GI50 (OVCAR-8 ovarian): 0.117 µM
TGI (OVCAR-8 ovarian): > 25 µM
GI50 (U251 CNS): 0.0988 µM
TGI (U251 CNS): > 25 µM
GI50 (NCI/ADR-RES ovarian): 0.0761 µM
GI50 (OVCAR-5 ovarian): 0.157 µM
TGI (OVCAR-5 ovarian): > 25 µM
GI50 (MDA-MB-435): 0.0475 µM
TGI (MDA-MB-435): 0.12 µM

CN(C)CC1CCCCCCCCCCC1=O (stereo unspecified)
TGI (OVCAR-8 ovarian): > 10 µM
GI50 (U251 CNS): > 100 µM
TGI (U251 CNS): > 100 µM
GI50 (NCI/ADR-RES ovarian): > 100 µM
TGI (NCI/ADR-RES ovarian): > 100 µM
GI50 (OVCAR-5 ovarian): > 100 µM
TGI (OVCAR-5 ovarian): > 100 µM
GI50 (MDA-MB-435): > 100 µM
TGI (MDA-MB-435): > 100 µM

Cc1cccc(Cc2cnc(NC(=O)/C=C/c3ccco3)s2)c1
GI50 (OVCAR-8 ovarian): 0.0535 µM
TGI (OVCAR-8 ovarian): > 100 µM
GI50 (U251 CNS): 0.0396 µM
TGI (U251 CNS): > 100 µM
GI50 (NCI/ADR-RES ovarian): 0.0364 µM
TGI (NCI/ADR-RES ovarian): > 100 µM
GI50 (OVCAR-5 ovarian): 0.208 µM
TGI (OVCAR-5 ovarian): > 100 µM

N#CCCCCCn1c2ccccc2c2c3c(c4c5ccccc5[nH]c4c21)C(=O)N(O)C3=O
GI50 (U251 CNS): 0.435 µM
TGI (U251 CNS): 1.57 µM
GI50 (NCI/ADR-RES ovarian): 5.52 µM
TGI (NCI/ADR-RES ovarian): > 100 µM
GI50 (MDA-MB-435): 1.19 µM
TGI (MDA-MB-435): 3.09 µM

N#CSc1cc(-c2nc3ccccc3o2)ccc1N
GI50 (OVCAR-8 ovarian): 2.79 µM
TGI (OVCAR-8 ovarian): > 32.5 µM
GI50 (U251 CNS): 11.8 µM
TGI (U251 CNS): 57.3 µM
GI50 (NCI/ADR-RES ovarian): 22.2 µM
TGI (NCI/ADR-RES ovarian): 87.5 µM
GI50 (OVCAR-5 ovarian): 25.2 µM
TGI (OVCAR-5 ovarian): 76.6 µM
GI50 (MDA-MB-435): 24 µM
TGI (MDA-MB-435): 64.1 µM

Cn1cc(C2=C(c3cccc(Cl)c3)C(=O)NC2=O)c2ccccc21
GI50 (OVCAR-8 ovarian): > 25 µM
TGI (OVCAR-8 ovarian): > 25 µM
GI50 (U251 CNS): 16.5 µM
TGI (U251 CNS): > 25 µM
GI50 (NCI/ADR-RES ovarian): > 25 µM
TGI (NCI/ADR-RES ovarian): > 25 µM
GI50 (OVCAR-5 ovarian): > 25 µM
TGI (OVCAR-5 ovarian): > 25 µM
GI50 (MDA-MB-435): 12.6 µM
TGI (MDA-MB-435): > 25 µM

CCN1CCN(c2nc(NNC(=O)c3cccc(OC)c3)nc(N3CCN(C(c4ccccc4)c4ccccc4)CC3)n2)CC1
GI50 (NCI/ADR-RES ovarian): 2.42 µM
TGI (NCI/ADR-RES ovarian): 7.12 µM
GI50 (OVCAR-5 ovarian): 2.83 µM
TGI (OVCAR-5 ovarian): 9.97 µM
GI50 (MDA-MB-435): 1.7 µM
TGI (MDA-MB-435): 3.19 µM

S=C1NC2=C(CCOc3c2ccc2ccccc32)C(c2ccc(Cl)cc2)N1 (stereo unspecified)
GI50 (OVCAR-8 ovarian): 44.7 µM
TGI (OVCAR-8 ovarian): > 100 µM
GI50 (U251 CNS): 35.5 µM
TGI (U251 CNS): > 100 µM
GI50 (NCI/ADR-RES ovarian): 31.9 µM
TGI (NCI/ADR-RES ovarian): > 100 µM
GI50 (OVCAR-5 ovarian): 73.9 µM
TGI (OVCAR-5 ovarian): > 100 µM
GI50 (MDA-MB-435): 41.5 µM
TGI (MDA-MB-435): > 100 µM

C[C@@H]1CC[C@H]2C(CN(C)CC3=C(C(F)(F)F)O[C@@H]4O[C@@]5(C)CC[C@H]6[C@H](C)CC[C@@H]3[C@@]46OO5)=C(C(F)(F)F)O[C@@H]3O[C@@]4(C)CC[C@@H]1[C@]32OO4
GI50 (OVCAR-8 ovarian): 1.58 µM
TGI (OVCAR-8 ovarian): > 53.6 µM
GI50 (U251 CNS): 0.405 µM
TGI (U251 CNS): 22.6 µM
GI50 (NCI/ADR-RES ovarian): 16.8 µM
TGI (NCI/ADR-RES ovarian): > 59.2 µM
GI50 (OVCAR-5 ovarian): 0.935 µM
TGI (OVCAR-5 ovarian): > 100 µM
GI50 (MDA-MB-435): 0.549 µM
TGI (MDA-MB-435): 40.2 µM

Cc1c(-c2ccnc(N)n2)c2c(n1-c1ccccc1)C(=O)c1ccccc1C2=O
GI50 (OVCAR-8 ovarian): 17.2 µM
TGI (OVCAR-8 ovarian): > 100 µM
GI50 (U251 CNS): 18.9 µM
TGI (U251 CNS): 74.9 µM
GI50 (NCI/ADR-RES ovarian): 15.8 µM
TGI (NCI/ADR-RES ovarian): 66.8 µM
GI50 (OVCAR-5 ovarian): 23.4 µM
TGI (OVCAR-5 ovarian): 97.5 µM
GI50 (MDA-MB-435): 25.2 µM
TGI (MDA-MB-435): 67.3 µM

O=C(Nc1ccc(Oc2cccc(Cl)c2)c(Cl)c1)c1cccnc1
GI50 (OVCAR-8 ovarian): 2.85 µM
TGI (OVCAR-8 ovarian): 33.9 µM
GI50 (U251 CNS): 2.23 µM
TGI (U251 CNS): 18 µM
GI50 (NCI/ADR-RES ovarian): 1.28 µM
TGI (NCI/ADR-RES ovarian): 11.3 µM
GI50 (OVCAR-5 ovarian): 5.5 µM
TGI (OVCAR-5 ovarian): > 50 µM
GI50 (MDA-MB-435): 0.155 µM
TGI (MDA-MB-435): 0.723 µM

COc1cc(C2CC(c3cc(Cl)c(C)cc3O)=NN2c2ccc(S(N)(=O)=O)cc2)cc(OC)c1OC (stereo unspecified)
GI50 (OVCAR-8 ovarian): 3.92 µM
TGI (OVCAR-8 ovarian): 12.9 µM
GI50 (U251 CNS): 2.84 µM
TGI (U251 CNS): 8.89 µM
GI50 (NCI/ADR-RES ovarian): 2.58 µM
TGI (NCI/ADR-RES ovarian): 7.53 µM
GI50 (OVCAR-5 ovarian): 1.87 µM
TGI (OVCAR-5 ovarian): 4.28 µM
GI50 (MDA-MB-435): 2.57 µM
TGI (MDA-MB-435): 8.47 µM

c1ccc2c(Nc3ccc4c(c3)OCO4)c3ccoc3nc2c1
GI50 (OVCAR-8 ovarian): 12.6 µM
TGI (OVCAR-8 ovarian): 46.4 µM
GI50 (U251 CNS): 17.6 µM
TGI (U251 CNS): 41.3 µM
GI50 (NCI/ADR-RES ovarian): 7.66 µM
TGI (NCI/ADR-RES ovarian): 75.5 µM
GI50 (OVCAR-5 ovarian): 25.9 µM
TGI (OVCAR-5 ovarian): 60.9 µM
GI50 (MDA-MB-435): 3.97 µM
TGI (MDA-MB-435): 14.4 µM

O=C1c2ccccc2-c2c1c1ccccc1c(=O)n2CCCNCCO
GI50 (OVCAR-8 ovarian): 0.239 µM
TGI (OVCAR-8 ovarian): 11.6 µM
GI50 (U251 CNS): 0.302 µM
TGI (U251 CNS): 5.61 µM
GI50 (NCI/ADR-RES ovarian): 1.67 µM
TGI (NCI/ADR-RES ovarian): 8.7 µM
GI50 (OVCAR-5 ovarian): 1.05 µM
TGI (OVCAR-5 ovarian): 7.27 µM
GI50 (MDA-MB-435): 0.895 µM
TGI (MDA-MB-435): 4.92 µM

CCN(CC)CCn1nc2c3c(cccc3c1=O)-c1ccccc1-2
GI50 (OVCAR-8 ovarian): 2.23 µM
TGI (OVCAR-8 ovarian): > 50 µM
GI50 (U251 CNS): 2.18 µM
TGI (U251 CNS): 24.7 µM
GI50 (NCI/ADR-RES ovarian): 2.19 µM
TGI (NCI/ADR-RES ovarian): 45.1 µM
GI50 (OVCAR-5 ovarian): 2.3 µM
TGI (OVCAR-5 ovarian): > 50 µM
GI50 (MDA-MB-435): 2.96 µM
TGI (MDA-MB-435): 10.5 µM
